# Assay results as given in article PMC4418665, “Cyclization of the Urokinase Receptor-Derived Ser-Arg-Ser-Arg-Tyr Peptide Generates a Potent Inhibitor of Trans-Endothelial Migration of Monocytes” (PLoS ONE, 2015).
# Peptide text beside a SMILES is read from it.
# Key:
# [1] = test system: THP-1 cells; type: cell-based, human; conditions: 10 nM peptide, 90 minutes, Boyden chamber
# Procedure: The ability of [SRSRY] peptide to affect THP-1 cell migration was analyzed in Boyden chambers using 10 nM fMLF or 10 nM SRSRY as chemoattractants. […] Inhibitory effect of [SRSRY] is dose-dependent, it starts in the high fM range, it seems to level off in the μM range and reaches an overall 50% reduction at 10 pM (Fig 4B). […] The mechanisms by which monocytes move when subjected to a chemoattractant gradient, involve changes in cytoskeletal organization, which provide both protrusive and contractile forces necessary for cell migration. To gain some insights into the cellular effects exerted by peptide [SRSRY], PMA-differentiated THP-1 cells were grown adherent onto a glass slide, exposed to diluents (CTL), 10 nM fMLF gradient plus/minus 10 nM [SRSRY] or 10 nM [RSSYR] in a DUNN chamber for 6 hours as described, and then stained with rhodamine-phalloidin. A total of 100 cells/sample that translocated to the area corresponding to the ring separating the inner and outer chambers were counted and their cytoskeletal organization examined with a fluorescence-inverted microscope. […] Conversely, the addition of peptide [SRSRY] to the fMLF gradient reduced cell elongation and alignment with the appearance of F-actin linear distribution along the plasma membranes in the 60% of cell population (Fig 4C). In order to verify whether the inhibitory effect of [SRSRY] also occurs on primary monocytes and/or macrophages, human monocytes and macrophages were subjected to cell migration assays in Boyden and DUNN chambers, respectively. […] Unlike [RSSYR], 10 nM [SRSRY] reduced both fMLF- and SRSRY- directed monocyte migration by 50% and 49%, respectively. Next, primary macrophages were subjected to cell migration assay in DUNN chamber as above described. After 6 hours incubation, a total of 100 cells/sample that translocated to the area corresponding to the ring separating the inner and outer chambers were counted. Macrophage exposure to 10 nM fMLF elicited a considerable cell migration, reaching 230% of the basal cell migration (CTL), that was unchanged by 10 nM [[…]). […] These findings indicate that unlike linear SRSRY, the cyclic form of the chemotactic sequence of uPAR inhibits monocyte motility and prevents cytoskeletal re-organization occurring during migration of macrophages. {[…]] inhibits migration of monocytes and macrophages in a dose-dependent manner causing a marked inhibition of fMLF-dependent cytoskeletal re-organization. A. THP-1 cells (1x10^5 cells/well) were allowed to migrate for 90 minutes at 37°C, 5% CO2 in Boyden chambers toward 10 nM fMLF, or 10 nM SRSRY in the presence of diluents (None), 10 nM [RSSYR] or 10 nM [SRSRY]. […] Data are expressed as the means ± SD of three independent experiments, performed in duplicate. *Statistical significance against None with p<0.001. B. THP-1 and PMA-stimulated THP-1 cell migration toward 10 nM fMLF plus increasing concentrations of [SRSRY] in Boyden chambers. The extent of cell migration was expressed as a percentage of the net fMLF-dependent cell migration, considered as 100%. Data are expressed as the means ± SD of three independent experiments, performed in duplicate. C. Representative images of PMA-stimulated THP-1 cells allowed to migrate in a DUNN chamber toward diluents (CTL), or a fMLF chemotactic gradient, in the absence (None) or presence of 10 nM [SRSRY] or [RSSYR] peptides and stained with rhodamine-phalloidin. Scale bar: 10 μm. Original magnifications: 630x. D-E. Primary monocytes (1x10^5 cells/well) were allowed to migrate for 90 minutes at 37°C, 5% CO2 in Boyden chambers toward 10 nM fMLF (D), or 10 nM […]) in the presence of diluents (None), 10 nM [RSSYR] or 10 nM [SRSRY]. […] Data are expressed as the means ± SD of three independent experiments, performed in duplicate. *Statistical significance against None with p<0.001; **Statistical significance against None with p<0.0001. […]
# [2] = test system: primary macrophages; assay: Primary macrophage migration in DUNN chamber; type: cell-based, human; conditions: 10 nM peptide added to 10 nM fMLF gradient, 6 hours
# Procedure: The ability of [SRSRY] peptide to affect THP-1 cell migration was analyzed in Boyden chambers using 10 nM fMLF or 10 nM SRSRY as chemoattractants. […] Inhibitory effect of [SRSRY] is dose-dependent, it starts in the high fM range, it seems to level off in the μM range and reaches an overall 50% reduction at 10 pM (Fig 4B). […] The mechanisms by which monocytes move when subjected to a chemoattractant gradient, involve changes in cytoskeletal organization, which provide both protrusive and contractile forces necessary for cell migration. […] A total of 100 cells/sample that translocated to the area corresponding to the ring separating the inner and outer chambers were counted and their cytoskeletal organization examined with a fluorescence-inverted microscope. […] After 6 hours incubation, a total of 100 cells/sample that translocated to the area corresponding to the ring separating the inner and outer chambers were counted. […] Data are expressed as the means ± SD of three independent experiments, performed in duplicate. *Statistical significance against None with p<0.001. […] The extent of cell migration was expressed as a percentage of the net fMLF-dependent cell migration, considered as 100%. Data are expressed as the means ± SD of three independent experiments, performed in duplicate. […]
# [3] = target: T1, FPR1 (Homo sapiens, UniProt P21462); assay: Agonist-induced FPR1 internalization at 37°C, fluorescence microscopy, THP-1 cells; type: cell-based; set-up: host or cells: THP-1 human monocytic leukemia cells; conditions: excess (100 nM) unlabelled peptide 30 min at 37°C, then 10 nM FITC-fMLF 30 min at 37°C
# T1 sequence (P21462 1-350): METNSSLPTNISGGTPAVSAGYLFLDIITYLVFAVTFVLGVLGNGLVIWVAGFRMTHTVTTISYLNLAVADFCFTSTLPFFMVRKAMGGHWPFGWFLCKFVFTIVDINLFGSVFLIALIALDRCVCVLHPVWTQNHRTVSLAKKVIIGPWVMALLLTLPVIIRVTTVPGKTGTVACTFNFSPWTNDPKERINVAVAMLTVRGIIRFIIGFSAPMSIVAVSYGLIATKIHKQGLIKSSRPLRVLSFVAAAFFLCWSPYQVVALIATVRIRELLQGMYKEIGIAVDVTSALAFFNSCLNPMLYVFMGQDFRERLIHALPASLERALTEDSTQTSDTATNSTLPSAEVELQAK
# Procedure: Once documented that both SRSRY and [SRSRY] peptides compete with fMLF for binding to FPR1, we investigated the effect of [SRSRY] on the motility of monocytes. Preliminarily, we assessed whether [SRSRY] is a ligand of FPR1 on monocyte cell surface. […] (Fig 3A). When binding experiments were performed at 37°C, FPR1 appeared mainly localized within the cytoplasm, adjacent but outside the nucleus of THP-1 cells.
# Fig 3 The peptide [SRSRY] binds to FPR1 on THP-1 cell surface. A. THP-1 cells (1.5 x10^6 cells/sample) were pre-incubated with diluents (None), 100 nM fMLF, 100 nM SRSRY or 100 nM [SRSRY] peptides for 60 minutes at 4°C, then exposed to 10 nM N-formyl-Nle-Leu-Phe-Nle-Tyr-Lys-fluorescein (FITC-fMLF) for additional 60 minutes at 4°C. Fluorimetric measurement of cell-associated fluorescence was assed using 485 nm excitation and 535 nm emission filters. Data are expressed as a percentage of the fluorescence associated to THP-1 cells exposed to FITC-fMLF alone (None = 100%) and represent a mean ± SD from triplicates. *Statistical significance (t-test) against None with p<0.001. B. THP-1 cells incubated with diluents (None), 100 nM fMLF, 100 nM SRSRY or 100 nM [SRSRY] peptides for 30 minutes at 37°C and exposed to 10 nM FITC-fMLF for additional 30 minutes at 37°C. Scale bar: 5 μm. Original magnifications: 630x. […]
structure (smiles),measurement,setting,value
"N=C(N)NCCC[C@@H]1NC(=O)[C@H](CCCNC(=N)N)NC(=O)[C@H](Cc2ccc(O)cc2)NC(=O)[C@H](CO)NC(=O)[C@H](CO)NC1=O [[RSSYR], [Arg-Ser-Ser-Tyr-Arg]] (cyclo(RRSSY))",reduction of THP-1 monocyte migration toward 10 nM SRSRY,[1],did not exert any effect
same,reduction of THP-1 monocyte migration toward 10 nM fMLF,[1],did not exert any effect
same,effect on fMLF-directed migration of primary macrophages,[2],unchanged
same,internalization of fluorescent agonist in THP-1 cells,[3],did not exert such effect
